# From patent US20100075907A1, “NEUROMEDIN U RECEPTOR AGONISTS AND USES THEREOF” (priority 2006, published 2010)
# Non-standard residues stand in square brackets, D forms with d. Residues, ends and D or L forms follow the SMILES beside them. No end group written: not given here. hArg = N=C(N)NCCCC[C@H](N)C(=O)O; dNle = CCCC[C@@H](N)C(=O)O
# Biological target: hNMUR2 (Homo sapiens, UniProt Q9GZQ4)
# Assay: In vitro functional assay, HEK-hR2 cells
# Assay type: cell-based
# Design: expressed in transfected cells; host or cells: FLP-In CHO or HEK-293 FLP-In cells (pcDNA5); HEK-293/aeq17 lines (pcDNA3.1) were also made; % Activity: concentration or dose not given beside the values
# Details: Table 8, HEK-hR2, functional
# Text: Human, mouse or rat cDNAs encoding NMUR1 or NMUR2 (as described in Howard et al. Nature 406: 70-74 (2000) were subcloned in pcDNA5 (Invitrogen) and transfected into FLP-In CHO cells and HEK-293 FLP-In cells purchased from Invitrogen (Carlsbad, Calif.) using lipofectamine (Invitrogen). The Flp-In system allows integration and expression of a particular gene of interest at a specific genomic location utilizing the Flp recombinase from yeast. The transfected cells were selected by growth in medium containing 200 μg/mL hygromycin (Invitrogen). Populations were frozen at early passage numbers, and these stocks were used for further studies. Stable clones that expressed the mRNAs were identified functionally by FLIPR as well as by RT-PCR. […] Two different rodent NMUR1 cell lines were thus generated: one with the codon as predicted from the genomic databases and another cell line with an engineered methionine (ATG) as the start codon. Additionally, stable cell lines expressing the human receptors were generated in HEK-293/aeq17 cells which stably express the aequorin gene under the CMV promoter. The human NMUR2 cDNA was cloned into pcDNA3.1 and human NMUR1 was subcloned into pIRES-puro (Clontech, Mountain View, Calif.), after transfection cells were selected in media containing G418 and either hygromycin (NMUR2) or puromycin (NMUR1).
# The NMU receptors signal primarily through Gαq/11 proteins; therefore calcium mobilization assays can be utilized for functional activity.
# Stable cell lines expressing human and or rodent NMUR1 or human NMUR2 receptors were plated at a density of 12,000 cells per well overnight on poly-lysine coated 384-well black-walled plates. The following day, the media was removed from the plates and the cells were subsequently loaded with Fluo-3 (Molecular Probes), a calcium sensitive dye, diluted in FLIPR buffer (1× Hank's buffered saline containing 20 mM HEPES, 0.1% BSA, 2.5 mM probenecid (Sigma) and 1.6 mM TR40). All reagents are from Invitrogen unless otherwise noted. Peptide stocks were resuspended in DMSO at a stock concentration of 2 mM and diluted in FLIPR buffer on the day of the experiment to a 4 μM working stock solution.
# After a 90 minute incubation at room-temperature, cell plates were loaded onto a FLIPR (Molecular Devices) to monitor cellular fluorescence (excitation=488 nm; emission=540 nm) before and after compound/peptide addition. Eight to twelve point dose responses were tested on NMUR-expressing cell lines using FLIPR with 1 μM peptide as the highest dose. The response after peptide addition was taken as the maximum fluorescence units minus the fluorescence immediately prior to stimulation for each well. EC50 values were calculated using GraphPad Prism (San Diego, Calif.) software.
# In addition to FLIPR, NMU receptor function can also be evaluated using an aequorin assay. Stable cell lines expressing the aequorin jelly fish gene can be used to report the activation of GPCRs by monitoring intracellular calcium mobilization. The objective is to identify compounds which specifically stimulate aequorin bioluminescence. Calcium-dependent luminescence is generated by the treatment of cells with the coelenterate luciferin, coelenterazine. Briefly, confluent monolayers of HEK-293/aeq 17 cells expressing hNMUR1 or hNMUR2 are “charged” with coelenterazine (Molecular Probes, Carlsbad, Calif.). Confluent T75 flasks are rinsed with media containing 300 μM glutathione and 0.1% FBS. Cells are incubated at 37° C. for one hour in 8 mL media, 0.1% FBS, 300 μM glutathione, and 20 μM coelenterazine. T75 flasks are subsequently rinsed with 6 mL ECB buffer (140 mM NaCl, 20 mM KCl, 20 mM HEPES, 5 mM glucose, 1 mM MgCl, 1 mM CaCl2, 0.1 mg/mL BSA, PH 7.3-7.4). Cells are removed from the flask in ECB buffer, pelleted, and resuspended at a density of 2×10^5 cells/mL. Agonists are added to the cells and activity is determined using a luminometer.
# Sequence of hNMUR2 (Q9GZQ4 whole entry): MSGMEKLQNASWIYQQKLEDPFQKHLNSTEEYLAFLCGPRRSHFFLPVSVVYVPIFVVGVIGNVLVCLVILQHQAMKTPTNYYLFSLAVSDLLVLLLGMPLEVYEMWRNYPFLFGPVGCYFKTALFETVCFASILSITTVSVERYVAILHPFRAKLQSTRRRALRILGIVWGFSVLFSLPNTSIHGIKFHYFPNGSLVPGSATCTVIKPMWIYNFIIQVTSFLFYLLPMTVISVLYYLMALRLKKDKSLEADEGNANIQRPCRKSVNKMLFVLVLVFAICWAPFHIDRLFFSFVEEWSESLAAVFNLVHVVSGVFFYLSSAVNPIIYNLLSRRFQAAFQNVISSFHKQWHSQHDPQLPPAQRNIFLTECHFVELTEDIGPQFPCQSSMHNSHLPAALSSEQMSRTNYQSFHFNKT
Compound,% Activity [%],IC50 [nM]
H-YFGWRPRN-NH2 [Agonist C],0,> 1000
"CC(=O)N[C@@H](Cc1ccccc1)C(=O)N[C@H](CC(C)C)C(=O)N[C@@H](Cc1c[nH]c2ccccc12)C(=O)N[C@@H](CCCNC(=N)N)C(=O)N1CCC[C@H]1C(=O)N[C@@H](CCCNC(=N)N)C(=O)N[C@@H](CC(N)=O)C(N)=O [Agonist E, Ac-F-(D-L)-WRPRN-CONH2] (Ac-F[dL]WRPRN-NH2)",1.8,> 1000
"YFWRPRN-NH2 [Agonist A, YFWRPRN-CONH2]",0,> 1000
"CC(C)C[C@@H](NC(=O)[C@H](Cc1ccccc1)NC(=O)[C@@H](N)Cc1ccc(O)cc1)C(=O)N[C@@H](Cc1c[nH]c2ccccc12)C(=O)N[C@@H](CCCNC(=N)N)C(=O)N1CCC[C@H]1C(=O)N[C@@H](CCCNC(=N)N)C(=O)N[C@@H](CC(N)=O)C(N)=O [Agonist B, YF-(D-L)-WRPRN-CONH2] (H-YF[dL]WRPRN-NH2)",0,> 1000
"C[C@@H](NC(=O)[C@H](Cc1ccccc1)NC(=O)[C@@H](N)Cc1ccc(O)cc1)C(=O)N[C@@H](Cc1c[nH]c2ccccc12)C(=O)N[C@@H](CCCNC(=N)N)C(=O)N1CCC[C@H]1C(=O)N[C@@H](CCCNC(=N)N)C(=O)N[C@@H](CC(N)=O)C(N)=O [Agonist D, YF-(D-A)-WRPRN-CONH2] (H-YF[dA]WRPRN-NH2; N-terminus assumed)",0,> 1000
H-FRVDEEFQSPFASQSRGYFWRPRN-NH2 [Agonist G],14,> 1000
"Ac-FFRPRN-NH2 [Agonist F, Ac-FFRPRN-CONH2]",96,870

# Same assay, conditions: Table 9, HEK-hR2, functional
Compound,% Activity [%],EC50 [nM]
"CC(C)C[C@H](NC(=O)[C@H](Cc1c[nH]c2ccccc12)NC(=O)[C@@H](N)Cc1ccccc1)C(=O)N[C@@H](Cc1ccccc1)C(=O)N[C@@H](CCCNC(=N)N)C(=O)N1CCC[C@H]1C(=O)N[C@@H](CCCCNC(=N)N)C(=O)N[C@@H](CC(N)=O)C(N)=O [Agonist I, FWLFRP-(Harg)-N-CONH2] (H-FWLFRP[hArg]N-NH2)",99,
"CC(C)C[C@H](NC(=O)[C@H](Cc1ccccc1)NC(=O)[C@@H](N)Cc1ccc(O)cc1)C(=O)N[C@@H](Cc1ccccc1)C(=O)N[C@@H](CCCNC(=N)N)C(=O)N1CCC[C@H]1C(=O)N[C@@H](CCCNC(=N)N)C(=O)N[C@@H](CC(N)=O)C(N)=O [NMU-8, reference compound]",104,
H-FWLFRARN-NH2 [Agonist L],100,
WALFRARN-NH2 [Agonist M],93,33
"CCCC[C@@H](NC(=O)[C@H](CCCNC(=N)N)NC(=O)[C@H](C)NC(=O)[C@H](CCCNC(=N)N)NC(=O)[C@H](Cc1ccccc1)NC(=O)[C@H](CC(C)C)NC(=O)[C@H](Cc1ccccc1)NC(=O)[C@@H](N)Cc1c[nH]c2ccccc12)C(N)=O [Agonist K, WFLFRAR-(D-Nle)-CONH2] (H-WFLFRAR[dNle]-NH2)",100,2
"CC(C)C[C@H](NC(=O)[C@H](Cc1c[nH]c2ccccc12)NC(=O)[C@@H](N)Cc1ccccc1)C(=O)N[C@@H](Cc1ccccc1)C(=O)N[C@@H](CCCNC(=N)N)C(=O)N[C@@H](C)C(=O)N[C@@H](CCCCNC(=N)N)C(=O)N[C@@H](CC(N)=O)C(N)=O [Agonist J, FWLFRA-(Harg)-N-CONH2] (H-FWLFRA[hArg]N-NH2)",59,
FALFRPRN-NH2 [Agonist N],100,
CC(C)C[C@H](NC(=O)[C@H](Cc1c[nH]c2ccccc12)NC(=O)[C@H](Cc1ccccc1)NC(=O)CNC(=O)[C@H](CCCNC(=N)N)NC(=O)[C@H](CO)NC(=O)[C@H](CCC(N)=O)NC(=O)[C@H](CO)NC(=O)[C@H](C)NC(=O)[C@H](Cc1ccccc1)NC(=O)[C@@H]1CCCN1C(=O)[C@H](CO)NC(=O)[C@H](CCC(N)=O)NC(=O)[C@H](Cc1ccccc1)NC(=O)[C@H](CCC(=O)O)NC(=O)[C@H](CCC(=O)O)NC(=O)[C@H](CC(=O)O)NC(=O)[C@@H](NC(=O)[C@H](CCCNC(=N)N)NC(=O)[C@@H](N)Cc1ccccc1)C(C)C)C(=O)N[C@@H](Cc1ccccc1)C(=O)N[C@@H](CCCNC(=N)N)C(=O)N1CCC[C@H]1C(=O)N[C@@H](CCCCNC(=N)N)C(=O)N[C@@H](CC(N)=O)C(N)=O [Agonist O] (H-FRVDEEFQSPFASQSRGFWLFRP[hArg]N-NH2; N-terminus assumed),67,16
CC(C)C[C@H](NC(=O)[C@H](Cc1c[nH]c2ccccc12)NC(=O)[C@H](Cc1ccccc1)NC(=O)CNC(=O)[C@H](CCCNC(=N)N)NC(=O)[C@H](CO)NC(=O)[C@H](CCC(N)=O)NC(=O)[C@H](CO)NC(=O)[C@H](C)NC(=O)[C@H](Cc1ccccc1)NC(=O)[C@@H]1CCCN1C(=O)[C@H](CO)NC(=O)[C@H](CCC(N)=O)NC(=O)[C@H](Cc1ccccc1)NC(=O)[C@H](CCC(=O)O)NC(=O)[C@H](CCC(=O)O)NC(=O)[C@H](CC(=O)O)NC(=O)[C@@H](NC(=O)[C@H](CCCNC(=N)N)NC(=O)[C@@H](N)Cc1ccccc1)C(C)C)C(=O)N[C@@H](Cc1ccccc1)C(=O)N[C@@H](CCCNC(=N)N)C(=O)N[C@@H](C)C(=O)N[C@@H](CCCCNC(=N)N)C(=O)N[C@@H](CC(N)=O)C(N)=O [Agonist P] (H-FRVDEEFQSPFASQSRGFWLFRA[hArg]N-NH2; N-terminus assumed),100,
CCCC[C@@H](NC(=O)[C@H](CCCNC(=N)N)NC(=O)[C@@H]1CCCN1C(=O)[C@H](CCCNC(=N)N)NC(=O)[C@H](Cc1ccccc1)NC(=O)[C@H](CC(C)C)NC(=O)[C@H](Cc1c[nH]c2ccccc12)NC(=O)[C@H](Cc1ccccc1)NC(=O)CNC(=O)[C@H](CCCNC(=N)N)NC(=O)[C@H](CO)NC(=O)[C@H](CCC(N)=O)NC(=O)[C@H](CO)NC(=O)[C@H](C)NC(=O)[C@H](Cc1ccccc1)NC(=O)[C@@H]1CCCN1C(=O)[C@H](CO)NC(=O)[C@H](CCC(N)=O)NC(=O)[C@H](Cc1ccccc1)NC(=O)[C@H](CCC(=O)O)NC(=O)[C@H](CCC(=O)O)NC(=O)[C@H](CC(=O)O)NC(=O)[C@@H](NC(=O)[C@H](CCCNC(=N)N)NC(=O)[C@@H](N)Cc1ccccc1)C(C)C)C(N)=O [Agonist Q] (H-FRVDEEFQSPFASQSRGFWLFRPR[dNle]-NH2),97,
"H-FRVDEEFQSPFASQSRGYFLFRPRN-NH2 [hNMU-25, reference compound]",100,1.5
